What is called inhibition is the drop in the measured response relative to a control, in per cent.

This is an account of results in patent US12194033B2, “Glycine receptor modulators and methods of use” (University of Pittsburgh—Of the Commonwealth System of …, priority 2017, dated 2025).

Series [1] deals with inflammatory markers in the liver and spleen of mice. The series can be described thus: In vivo immune responses by flow cytometry. Conditions: 2 mg/kg, ~16 hours prior to sacrifice. The protocol: (§1) Toxicity was evaluated using in vitro Ames test and in vivo immune responses flow cytometry. Compound 1 (MJPY1) at each concentration was tested in three 48-well plates using the TA100 strain Salmonella typhimurium and S9 rat liver extract for base-pair substitution mutations. Error bars represent SEM. Significance (p<0.05) was evaluated compared to the control (0 μM) using one-way ANOVA with the Bonferroni post-hoc test. FIGS. 15A and 15B show flow cytometry evaluation of common inflammatory markers in the liver and spleen of mice in response to compound 1 (MJPY1) treatment. Mice received either 2 mg/kg of MJPY1 (right) or vehicle (left) ˜16 hours prior to sacrifice and tissue collection. Significant differences between the treatment and control were observed only for decreased CD11b+ in the liver of mice treated with MJPY1 (p<0.001). […] Results were analyzed by one-way ANOVA with Bonferroni post-hoc test.
Background: A flow cytometer gives signals particle by particle.

A further series concerns the target KOR (Homo sapiens, UniProt P41145). The series can be described thus: Radioligand binding assay, off-target profiling. As to conditions: 10 M MJPY1, mean, n = 4.
For the next series, the target named is hERG (Homo sapiens, UniProt Q12809). The series can be described thus: Radioligand binding assay, off-target profiling. Conditions: 10 µM MJPY1, mean, n = 4.
Chain of hERG (Q12809 whole entry): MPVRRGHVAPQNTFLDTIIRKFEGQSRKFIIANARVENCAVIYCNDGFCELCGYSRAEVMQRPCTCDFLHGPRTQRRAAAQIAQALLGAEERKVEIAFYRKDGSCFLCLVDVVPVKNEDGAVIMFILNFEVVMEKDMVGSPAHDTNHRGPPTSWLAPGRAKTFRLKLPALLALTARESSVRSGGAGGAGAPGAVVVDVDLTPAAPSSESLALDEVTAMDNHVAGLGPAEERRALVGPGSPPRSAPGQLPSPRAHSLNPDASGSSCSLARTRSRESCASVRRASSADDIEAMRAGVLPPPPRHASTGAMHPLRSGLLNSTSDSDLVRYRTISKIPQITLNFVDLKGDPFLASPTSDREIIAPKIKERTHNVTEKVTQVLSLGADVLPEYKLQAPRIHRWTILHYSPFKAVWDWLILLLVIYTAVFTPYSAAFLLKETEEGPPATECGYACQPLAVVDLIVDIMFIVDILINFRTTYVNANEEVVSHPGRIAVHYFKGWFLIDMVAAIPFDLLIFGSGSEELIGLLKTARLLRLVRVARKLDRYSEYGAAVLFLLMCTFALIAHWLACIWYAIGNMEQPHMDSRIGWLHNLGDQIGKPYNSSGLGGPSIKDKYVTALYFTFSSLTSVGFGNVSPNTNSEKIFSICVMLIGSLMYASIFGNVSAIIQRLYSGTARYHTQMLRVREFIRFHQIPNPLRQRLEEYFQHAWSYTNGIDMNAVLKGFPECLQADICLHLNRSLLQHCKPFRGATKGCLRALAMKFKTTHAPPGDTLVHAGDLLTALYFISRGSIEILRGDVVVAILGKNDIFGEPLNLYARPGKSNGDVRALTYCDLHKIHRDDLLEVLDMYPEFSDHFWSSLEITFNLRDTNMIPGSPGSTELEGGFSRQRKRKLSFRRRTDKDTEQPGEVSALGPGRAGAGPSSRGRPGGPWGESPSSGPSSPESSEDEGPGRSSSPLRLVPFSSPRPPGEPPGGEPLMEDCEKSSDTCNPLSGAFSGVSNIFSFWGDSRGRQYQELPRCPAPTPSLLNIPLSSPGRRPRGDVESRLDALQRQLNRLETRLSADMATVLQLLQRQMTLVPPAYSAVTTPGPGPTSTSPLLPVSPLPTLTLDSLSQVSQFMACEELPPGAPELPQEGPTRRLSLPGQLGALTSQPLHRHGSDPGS
The test system of series [2] is TA100 strain Salmonella typhimurium. The series is described as follows: In vitro Ames test. It is filed as cell-based. As to conditions: S9 rat liver extract. As to the method:
as §1
Background: The Ames test detects mutagens through reverse mutation in bacteria.

In a further series the target is T1, S296A mutation in α3GlyR (Homo sapiens, UniProt O75311, S329A).
T1 construct: expressed in transfected cells; host or cells: Xenopus laevis oocytes
T1 sequence (O75311 34-464 S329A): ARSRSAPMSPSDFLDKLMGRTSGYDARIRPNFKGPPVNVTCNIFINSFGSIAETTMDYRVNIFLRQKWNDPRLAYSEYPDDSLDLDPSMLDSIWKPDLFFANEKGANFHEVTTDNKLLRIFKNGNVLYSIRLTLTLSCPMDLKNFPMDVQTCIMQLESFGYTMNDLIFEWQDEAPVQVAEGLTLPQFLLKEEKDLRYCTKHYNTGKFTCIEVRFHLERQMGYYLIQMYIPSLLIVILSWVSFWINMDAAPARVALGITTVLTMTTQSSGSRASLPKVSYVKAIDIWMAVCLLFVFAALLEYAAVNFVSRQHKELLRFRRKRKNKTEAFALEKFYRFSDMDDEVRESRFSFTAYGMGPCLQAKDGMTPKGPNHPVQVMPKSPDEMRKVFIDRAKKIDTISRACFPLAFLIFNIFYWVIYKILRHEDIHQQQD
The series can be described thus: Electrophysiology on Xenopus laevis oocytes, S296A mutant. It counts as cell-based. As to conditions: EC2 agonist, 10 μM compound. The protocol: (§2) MJPY1 potentiates α3GlyR through binding to the THC-binding site near S296 in the transmembrane domain (TMD). Like α3GlyR, but unlike ELIC, the chimera ELIC-α3GlyR containing the α3GlyR TMD is potentiated by MJPY1. The S296A mutation in α3GlyR abolishes compound 1 (MJPY1)'s potentiation. Data were recorded at EC2 agonist for the indicated channels and are reported as the ratio of currents in the presence (I) and absence (Io) of 10 μM compound 1 (MJPY1). Error bars represent SEM (n≥4 oocytes).

The target of another series is MOR (Homo sapiens, UniProt P35372). The series can be described thus: Radioligand binding assay, off-target profiling. Conditions: 10 M MJPY1, mean, n = 4.
Chain of MOR (P35372 whole entry): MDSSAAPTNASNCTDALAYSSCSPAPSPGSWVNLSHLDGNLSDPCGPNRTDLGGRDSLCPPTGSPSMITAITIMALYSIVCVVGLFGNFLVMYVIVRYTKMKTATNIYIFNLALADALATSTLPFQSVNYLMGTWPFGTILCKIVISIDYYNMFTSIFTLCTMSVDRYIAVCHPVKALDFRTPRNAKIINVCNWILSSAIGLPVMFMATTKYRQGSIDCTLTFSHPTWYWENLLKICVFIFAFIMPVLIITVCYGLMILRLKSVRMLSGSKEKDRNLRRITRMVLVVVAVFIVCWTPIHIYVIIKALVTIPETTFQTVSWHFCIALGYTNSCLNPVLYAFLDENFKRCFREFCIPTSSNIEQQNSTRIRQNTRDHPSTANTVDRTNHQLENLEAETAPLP
A further series concerns NMDAR. The series can be described thus: Radioligand binding assay, off-target profiling. As to conditions: 10 M MJPY1, mean, n = 4.
The target in the next series is NOR (Homo sapiens, UniProt P41146). The series can be described thus: Radioligand binding assay, off-target profiling. Conditions: 10 M MJPY1, mean, n = 4.
Chain of NOR (P41146 whole entry): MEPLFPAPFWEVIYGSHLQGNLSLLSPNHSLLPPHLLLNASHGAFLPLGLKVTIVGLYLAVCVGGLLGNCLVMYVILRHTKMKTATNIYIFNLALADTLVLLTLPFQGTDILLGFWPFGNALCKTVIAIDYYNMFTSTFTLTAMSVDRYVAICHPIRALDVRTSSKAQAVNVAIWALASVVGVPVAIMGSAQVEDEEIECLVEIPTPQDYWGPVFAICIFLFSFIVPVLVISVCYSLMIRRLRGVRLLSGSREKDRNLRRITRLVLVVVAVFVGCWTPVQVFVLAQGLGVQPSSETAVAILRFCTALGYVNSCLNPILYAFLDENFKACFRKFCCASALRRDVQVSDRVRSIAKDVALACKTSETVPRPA
Series [3] deals with chimera ELIC-α3GlyR containing the α3GlyR TMD. The series can be described thus: Electrophysiology on Xenopus laevis oocytes, chimera. As to conditions: EC2 agonist, 10 μM compound. It is filed as cell-based. The protocol: as §2
The target in the next series is 4 2-nAChR (Homo sapiens, UniProt P17787+P43681). The series can be described thus: Radioligand binding assay, off-target profiling. Conditions: 10 M MJPY1, mean, n = 4.
Chain of 4 2-nAChR (P43681 29-627 limits assumed): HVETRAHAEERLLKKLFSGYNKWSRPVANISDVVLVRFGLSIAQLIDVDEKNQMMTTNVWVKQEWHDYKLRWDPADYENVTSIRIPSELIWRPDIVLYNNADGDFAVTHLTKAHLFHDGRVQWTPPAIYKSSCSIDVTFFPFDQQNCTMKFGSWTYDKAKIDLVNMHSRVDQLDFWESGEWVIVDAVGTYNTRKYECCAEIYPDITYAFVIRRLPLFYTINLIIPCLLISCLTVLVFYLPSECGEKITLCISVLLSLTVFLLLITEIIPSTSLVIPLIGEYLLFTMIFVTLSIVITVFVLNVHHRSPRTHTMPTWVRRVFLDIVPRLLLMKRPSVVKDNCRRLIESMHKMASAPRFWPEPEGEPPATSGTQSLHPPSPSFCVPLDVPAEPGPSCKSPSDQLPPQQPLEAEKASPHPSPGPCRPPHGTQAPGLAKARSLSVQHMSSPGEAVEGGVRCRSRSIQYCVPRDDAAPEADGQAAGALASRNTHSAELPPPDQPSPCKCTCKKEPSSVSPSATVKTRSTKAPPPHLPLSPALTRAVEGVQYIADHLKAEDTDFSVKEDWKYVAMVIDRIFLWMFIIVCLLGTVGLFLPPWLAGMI
Chain of 4 2-nAChR (P17787 26-502): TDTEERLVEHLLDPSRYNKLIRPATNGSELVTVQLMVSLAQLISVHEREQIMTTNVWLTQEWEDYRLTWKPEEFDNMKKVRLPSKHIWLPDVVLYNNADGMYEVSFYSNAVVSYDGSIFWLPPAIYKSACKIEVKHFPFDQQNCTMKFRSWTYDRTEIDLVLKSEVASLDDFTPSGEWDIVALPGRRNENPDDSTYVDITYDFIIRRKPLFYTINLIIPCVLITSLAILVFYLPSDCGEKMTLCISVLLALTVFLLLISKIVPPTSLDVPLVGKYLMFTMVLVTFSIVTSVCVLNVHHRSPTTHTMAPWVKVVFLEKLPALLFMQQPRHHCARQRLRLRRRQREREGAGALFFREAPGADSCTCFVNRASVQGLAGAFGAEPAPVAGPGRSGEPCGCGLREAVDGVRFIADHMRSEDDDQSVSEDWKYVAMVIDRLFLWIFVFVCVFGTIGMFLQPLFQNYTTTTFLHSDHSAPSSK
The target of the next series is T2, 5-HT3R (Homo sapiens, UniProt P46098).
T2 sequence (P46098 24-478): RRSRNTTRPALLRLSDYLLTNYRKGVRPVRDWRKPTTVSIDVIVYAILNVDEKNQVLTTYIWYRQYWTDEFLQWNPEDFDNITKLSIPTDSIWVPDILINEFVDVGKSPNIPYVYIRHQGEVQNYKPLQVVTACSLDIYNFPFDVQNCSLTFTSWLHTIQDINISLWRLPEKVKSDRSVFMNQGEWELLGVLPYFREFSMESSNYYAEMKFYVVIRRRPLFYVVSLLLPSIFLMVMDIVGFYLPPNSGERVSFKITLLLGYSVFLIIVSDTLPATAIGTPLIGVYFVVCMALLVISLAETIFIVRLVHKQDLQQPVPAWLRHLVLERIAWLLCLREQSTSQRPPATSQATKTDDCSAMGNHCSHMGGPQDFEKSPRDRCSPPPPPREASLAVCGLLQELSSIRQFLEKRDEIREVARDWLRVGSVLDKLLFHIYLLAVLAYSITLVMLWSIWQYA
The series can be described thus: Radioligand binding assay, off-target profiling. Conditions: 10 M MJPY1, mean, n = 4.

The next series relates to mice. The series is described as follows: Two-plate thermal preference test (30° C. vs 55° C.). It is filed as in vivo. The protocol: Responses to the two-plate thermal preference test were assessed under naïve conditions and 1 hour after administration of 0.2 mg/kg compound 1, 0.1 mg/kg morphine, or 0.2 mg/kg compound 1+0.1 mg/kg morphine. Unrestrained mice were exposed to plates set to normal and hot temperatures (30° C. and 55° C., respectively). Temperature preference was measured by percentage time spent on the hot plate (55° C.) over the course of 4 minutes, where 50% indicates no preference between the two temperatures. […] Error bars designate the standard error of the mean (n≥5).
Unrestrained mice were exposed to plates set to normal and hot temperatures (30° C. and 55° C., respectively) for 10 minutes. […] Error bars designate the standard error of the mean (n=4).
The percent inactivity on the 55° C. plate (mean±SEM) is a measure of heat tolerance. Significance was assessed by one-way ANOVA with LSD post-hoc test.

Another series deals with T3, CB2 (Homo sapiens, UniProt P34972).
T3 construct: expressed in transfected cells
T3 sequence (P34972 whole entry): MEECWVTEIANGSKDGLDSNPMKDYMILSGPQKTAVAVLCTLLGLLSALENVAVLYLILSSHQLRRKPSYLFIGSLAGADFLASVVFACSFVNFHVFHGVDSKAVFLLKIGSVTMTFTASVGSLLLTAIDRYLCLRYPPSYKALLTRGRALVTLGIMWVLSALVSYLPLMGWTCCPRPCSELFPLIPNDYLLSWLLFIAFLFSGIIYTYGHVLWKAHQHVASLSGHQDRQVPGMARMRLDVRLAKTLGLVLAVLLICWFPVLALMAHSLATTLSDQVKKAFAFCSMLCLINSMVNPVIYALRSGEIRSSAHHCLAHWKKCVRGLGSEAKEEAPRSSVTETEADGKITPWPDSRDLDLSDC
The series is described as follows: PRESTO-TANGO functional assay CB2. It counts as cell-based. As to conditions: against positive controls, n=3. The protocol: The specificity of compound 1 (MJPY1) to act only on glycine receptors was determined. No cross reactivity with other commonly known receptors was detected (FIG. 16 and Table 2). […] Activity is reported in relative luminescence units (RLU) as mean and SEM (n=3).

The structures appear in SMILES notation.

Chain of KOR (P41145 whole entry): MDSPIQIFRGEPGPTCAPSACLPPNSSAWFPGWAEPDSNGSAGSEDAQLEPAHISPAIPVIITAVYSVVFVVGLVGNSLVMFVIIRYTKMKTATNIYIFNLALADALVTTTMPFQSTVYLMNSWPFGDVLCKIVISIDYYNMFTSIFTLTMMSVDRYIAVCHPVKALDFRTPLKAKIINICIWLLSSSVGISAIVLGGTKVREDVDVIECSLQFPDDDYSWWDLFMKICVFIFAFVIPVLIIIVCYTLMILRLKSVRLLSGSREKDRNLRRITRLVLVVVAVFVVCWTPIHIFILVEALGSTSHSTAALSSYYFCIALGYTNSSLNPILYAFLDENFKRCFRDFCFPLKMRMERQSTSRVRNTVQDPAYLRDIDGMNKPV

Consider `NC(=O)c1cccc(CNC(=O)c2ccc3c4c(cccc24)CC3)c1` [compound 1, N-[(3-carbamoylphenyl)-methyl]-1,2-dihydroacenaphthylene-5-carboxamide], for which the “overall immune response to treatment” value in series [1] (liver and spleen) is “minimal immune response”. For the same compound, the “CD11b+ in the liver vs vehicle” value in series [1] (p<0.001) is reported as “decreased”. Further, the “% Inhibition KOR” value on KOR was determined as 5.0%. The inhibition at 10 µM on hERG is -19.5%. Moreover, the “mutagenic activity (base-pair substitution mutations)” value in [2] is “little mutagenic activity”. In addition, on S296A mutation in α3GlyR, the “potentiation of α3GlyR S296A (I/Io)” value was “abolishes”. Also, the “% Inhibition MOR” value on MOR is listed as 20.6%. For the same compound, the “% Inhibition NMDAR” value in the series on NMDAR is −2.4%. Also, the “% Inhibition NOR” value at NOR is recorded as −16.8%. Also, in series [3], the “potentiation of chimera ELIC-α3GlyR (I/Io)” value is on record as “potentiated”. Moreover, the “% Inhibition 4 2-nAChR” value at 4 2-nAChR is −1.8%. The “% Inhibition 5-HT3R” value at 5-HT3R is on record as −5.7%. In addition, the “analgesic action compared with morphine (percent inactivity on the 55° C. plate)” value with mice (0.1 mg/kg i.p., male CD1 mice, 24 hr after CFA, 1 hr after treatment, same dose) is listed as “better than morphine”. The “percentage time spent on the hot plate (55° C.) compared to naïve mice” value in the series on mice (normal nociception, 1 hour after 0.2 mg/kg compound 1, 0.1 mg/kg morphine, or both, 4 minutes) was “no significant analgesic response”. Moreover, the “agonist or antagonist activity on CB2 (RLU)” value on CB2 is “no agonist (top) or antagonist (bottom) activity”.
